We go through 1 compound from US20240277636A1, “COMBINATION COMPRISING AT LEAST ONE SEROTONIN REUPTAKE INHIBITOR AND AT LEAST ONE STIMULATOR OF POTASSIUM-CHLORIDE COTRANSPORTER TYPE 2 AND ITS MEDICAL USE” (Université de Bordeaux, priority 2021, published 2024).

The subject of this assay is neuropathic mice. The note with it: conditioned 1 h 30 after injection, post- versus pre-conditioning, result in words.

Method: 14 days after mice are free to explore during 10 minutes, a 2-chamber arena separated by a narrow corridor. A camera placed above the device allows tracking of mice movements. […] 1 H 30 after injection of either fluoxetine alone or combination of fluoxetine and CLP290, mice are restricted to one chamber during 10 minutes. 2 days after mice are put again and free to explore the entire arena. […] As control experiment, the same procedure is performed in neuropathic mice with fluoxetine and CLP290 vehicle.

Turning to `CNCCC(Oc1ccc(C(F)(F)F)cc1)c1ccccc1` (stereo not shown) [fluoxetine], the “time spent in the conditioned chamber (CPP)” value was “not”.
